pKi: −log10 of the molar value. Values after ≈ are worked out from the molar mass of the structure shown.
Columns and labels:
[1] = test system: Staphylococcus aureus; experiment: Antibacterial activity against Meticillin-Resistant Staphylococcus aureus clinical isolate assessed as inhibition of bacterial growth by CLSI-based broth microdilution method; assay type: functional
[2] = test system: Staphylococcus aureus; experiment: Antibacterial activity against Vancomycin-intermediate Staphylococcus aureus clinical isolate assessed as inhibition of bacterial growth by CLSI-based broth microdilution method; assay type: functional
[3] = test system: Staphylococcus aureus; experiment: Antibacterial activity against Vancomycin-resistant Staphylococcus aureus clinical isolate assessed as inhibition of bacterial growth by CLSI-based broth microdilution method; assay type: functional
[4] = test system: Staphylococcus aureus; experiment: Antibacterial activity against Daptomycin non-susceptible Staphylococcus aureus clinical isolate assessed as inhibition of bacterial growth by CLSI-based broth microdilution method; assay type: functional
[5] = test system: Staphylococcus aureus; experiment: Antibacterial activity against Linezolid non-susceptible Staphylococcus aureus clinical isolate assessed as inhibition of bacterial growth by CLSI-based broth microdilution method; assay type: functional
[6] = test system: HeLa; experiment: Cytotoxicity against human HeLa cells assessed as inhibition of cell growth by MTT assay; assay type: functional, cell-based
[7] = Cytotoxicity against MDCK cells assessed as inhibition of cell growth by MTT assay; assay type: toxicity, cell-based, Canis lupus familiaris; details: dog
[8] = Oral bioavailability in BALB/c mouse at 32 mg/kg by LC/MS-MS analysis; assay type: ADME, organism-based; details: in vivo
[9] = Volume of distribution at steady state in BALB/c mouse at 24 mg/kg, iv by LC/MS-MS analysis; assay type: ADME, organism-based; details: in vivo, read-out: Vdss
[10] = test system: Staphylococcus aureus; experiment: Antibacterial activity against methicillin-resistant Staphylococcus aureus ATCC 33591 infected in mouse assessed as log reduction in bacterial CFU in thigh 120 mg/kg, po measured after 24 hrs; assay type: functional
[11] = Toxicity in Syrian hamster infected with clindamycin resistant Clostridium difficile ATCC 43596 assessed as survival rate at 0.5 mg/kg, po administered twice a day and measured after 33 days; assay type: organism-based, Mesocricetus auratus; details: in vivo, 792 h, time 33 day
[12] = Toxicity in Syrian hamster infected with clindamycin resistant Clostridium difficile ATCC 43596 assessed as survival rate at 5 mg/kg, po administered twice a day and measured after 33 days; assay type: organism-based, Mesocricetus auratus; details: in vivo, 792 h, time 33 day
[13] = Toxicity in Syrian hamster infected with clindamycin resistant Clostridium difficile ATCC 43596 assessed as animal survival at 5 mg/kg, po administered twice a day and measured after 25 days; assay type: organism-based, Mesocricetus auratus; details: in vivo, 600 h, time 25 day
[14] = test system: Staphylococcus aureus; experiment: Antibacterial activity against Staphylococcus aureus clinical isolate assessed as bacterial growth inhibtion by CLSI-based broth microdilution method; assay type: functional
[15] = Plasma protein binding in human at 0.2 to 10 ug/ml by equilibrium dialysis; assay type: ADME, cell-free; details: at 0.2 to 10 µg/mL, dose 0.2-10 µg/ml, read-out: PPB
[16] = Plasma protein binding in mouse at 0.2 to 10 ug/ml by equilibrium dialysis; assay type: ADME, cell-free; details: at 0.2 to 10 µg/mL, dose 0.2-10 µg/ml, read-out: PPB
[17] = Plasma protein binding in dog at 0.2 to 10 ug/ml by equilibrium dialysis; assay type: ADME, cell-free, Canis lupus familiaris; details: at 0.2 to 10 µg/mL, dose 0.2-10 µg/ml, read-out: PPB
[18] = Plasma protein binding in Sprague-Dawley rat at 0.2 to 10 ug/ml by equilibrium dialysis; assay type: ADME, cell-free; details: at 0.2 to 10 µg/mL, dose 0.2-10 µg/ml, read-out: PPB
[19] = test system: Staphylococcus aureus; experiment: Post antibiotic effect against methicillin sensitive Staphylococcus aureus 29213 at 128 times of MIC incubated for 4 hrs by; assay type: functional
[20] = test system: Staphylococcus aureus; experiment: Post antibiotic effect against methicillin sensitive Staphylococcus aureus 29213 at 32 times of MIC incubated for 4 hrs by; assay type: functional
[21] = Cmax in mouse at 0.3 mg/kg, po incubated for 24 hrs by LC-MS-MS analysis; assay type: ADME, organism-based; design: dose 0.3 mg/kg, time 24 hrs, route po; details: in vivo
[22] = Cmax in mouse at 0.6 mg/kg, po incubated for 24 hrs by LC-MS-MS analysis; assay type: ADME, organism-based; design: dose 0.6 mg/kg, time 24 hrs, route po; details: in vivo
[23] = Cmax in mouse at 1 mg/kg, po incubated for 24 hrs by LC-MS-MS analysis; assay type: ADME, organism-based; design: time 24 hrs, dose 1 mg/kg, route po; details: in vivo
[24] = AUC (0 to t) in mouse at 0.3 mg/kg, po incubated for 24 hrs by LC-MS-MS analysis; assay type: ADME, organism-based; design: dose 0.3 mg/kg, time 24 hrs, route po; details: in vivo
[25] = AUC (0 to t) in mouse at 0.6 mg/kg, po incubated for 24 hrs by LC-MS-MS analysis; assay type: ADME, organism-based; design: dose 0.6 mg/kg, time 24 hrs, route po; details: in vivo
[26] = AUC (0 to t) in mouse at 1 mg/kg, po incubated for 24 hrs by LC-MS-MS analysis; assay type: ADME, organism-based; design: dose 1 mg/kg, time 24 hrs, route po; details: in vivo
[27] = Elimination half life in mouse at 0.3 to 1 mg/kg, po incubated for 24 hrs by LC-MS/MS analysis; assay type: ADME, organism-based; details: in vivo, dose 0.3-1 mg/kg, read-out: beta t1/2 (converted)
[28] = test system: Staphylococcus aureus; experiment: Antibacterial activity against Staphylococcus aureus smith infected CD-1 mouse assessed as survival rate at 1 mg/kg, po relative to control; assay type: functional
[29] = test system: Staphylococcus aureus; experiment: Antibacterial activity against Staphylococcus aureus smith infected oral dosed CD-1 mouse; assay type: functional
[30] = test system: Lactobacillus sp.; experiment: Antibacterial activity against Lactobacillus sp. clinical isolates assessed as inhibition of bacterial growth incubated for 48 hrs by CLSI-based Serial 2-fold dilution; assay type: functional
[31] = Binding affinity to N-terminal His-tagged Full-length human mitochondrial MetRS1 expressed in Escherichia coli assessed as inhibition constant by tRNA aminoacylation/ATP:PPi assay; assay type: mitochondria, Mitochondria
[32] = Binding affinity to N-terminal His-tagged Full-length Clostridium difficile MetRS1 expressed in Escherichia coli assessed as inhibition constant by tRNA aminoacylation/ATP:PPi assay; design: species or system Clostridioides difficile
[33] = Binding affinity to N-terminal His-tagged Full-length Staphylococcus aureus MetRS1 expressed in Escherichia coli assessed as inhibition constant by tRNA aminoacylation/ATP:PPi assay
[34] = Binding affinity to N-terminal His-tagged Full-length Streptococcus pneumoniae MetRS1 expressed in Escherichia coli assessed as inhibition constant by tRNA aminoacylation/ATP:PPi assay
[35] = Binding affinity to N-terminal His-tagged Full-length Haemophilus influenzae MetRS2 expressed in Escherichia coli assessed as inhibition constant by tRNA aminoacylation/ATP:PPi assay
[36] = Binding affinity to N-terminal His-tagged Full-length human cytoplasmic MetRS2 expressed in Escherichia coli assessed as inhibition constant by tRNA aminoacylation/ATP:PPi assay; assay type: subcellular, Cytoplasm
[37] = Binding affinity to N-terminal His-tagged Full-length Escherichia coli MetRS2 expressed in Escherichia coli assessed as inhibition constant by tRNA aminoacylation/ATP:PPi assay
[38] = Oral bioavailability in hamster; assay type: ADME, organism-based, Mesocricetus auratus; details: in vivo
[39] = Oral bioavailability in Sprague-Dawley rat; assay type: ADME, organism-based; details: in vivo
[40] = Oral bioavailability in Beagle dog; assay type: ADME, organism-based, Canis lupus familiaris; details: in vivo
[41] = test system: Clostridioides difficile; experiment: Antibacterial activity against Clostridium difficile clinical isolates assessed as inhibition of bacterial growth incubated for 44 hrs by CLSI-based broth microdilution assay; assay type: functional
[42] = test system: Staphylococcus aureus; experiment: Antibacterial activity against Meticillin-resistant Staphylococcus aureus clinical isolates assessed as inhibition of bacterial growth incubated for 44 hrs by CLSI-based broth microdilution assay; assay type: functional
[43] = test system: Enterococcus faecium; experiment: Antibacterial activity against Vancomycin-resistant Enterococcus faecium clinical isolates assessed as inhibition of bacterial growth incubated for 44 hrs by CLSI-based broth microdilution assay; assay type: functional
[44] = test system: Escherichia coli; experiment: Antibacterial activity against Escherichia coli clinical isolates assessed as inhibition of bacterial growth incubated for 44 hrs by CLSI-based broth microdilution assay; assay type: functional
[45] = test system: Klebsiella pneumoniae; experiment: Antibacterial activity against Klebsiella pneumoniae clinical isolates assessed as inhibition of bacterial growth incubated for 44 hrs by CLSI-based broth microdilution assay; assay type: functional
[46] = test system: Pseudomonas aeruginosa; experiment: Antibacterial activity against Pseudomonas aeruginosa clinical isolates assessed as inhibition of bacterial growth incubated for 44 hrs by CLSI-based broth microdilution assay; assay type: functional
[47] = test system: Acinetobacter baumannii; experiment: Antibacterial activity against Acinetobacter baumannii clinical isolates assessed as inhibition of bacterial growth incubated for 44 hrs by CLSI-based broth microdilution assay; assay type: functional
[48] = test system: Actinomyces sp.; experiment: Antibacterial activity against Actinomyces sp. clinical isolates assessed as inhibition of bacterial growth incubated for 48 hrs by CLSI-based Serial 2-fold dilution; assay type: functional
[49] = test system: Bifidobacterium sp.; experiment: Antibacterial activity against Bifidobacterium sp. clinical isolates assessed as inhibition of bacterial growth incubated for 48 hrs by CLSI-based Serial 2-fold dilution; assay type: functional
[50] = test system: Clostridioides difficile; experiment: Antibacterial activity against Clostridium difficile clinical isolates assessed as inhibition of bacterial growth; assay type: functional

With `CN1CCC(C(=O)NC(=O)c2c(F)ccc(OCc3nc4cc(C(F)(F)F)cnc4s3)c2F)CC1` the MIC [1] was 1 µg/mL (≈ 1.94 µM), the MIC [2] was 1 µg/mL (≈ 1.94 µM) and the MIC [3] was 1 µg/mL (≈ 1.94 µM). For the same molecule, the MIC [4] was 1 µg/mL (≈ 1.94 µM), the MIC [5] was 1 µg/mL (≈ 1.94 µM) and the IC50 [6] was over 120 µg/mL. The IC50 [7] was over 120 µg/mL, the bioavailability [8] was 1% and the Vd [9] was 2.02 L/kg. The “log(activity)” value [10] was 2.
For `Cl.Cl.O=c1cc(NCCCN[C@@H]2CCOc3c(Br)cc(Br)cc32)[nH]c2ccsc12`, the Survival [11] was 62%, the Survival [12] was 75% and the Activity [13] was “Toxic”.
In the case of `Cc1c(CN(C)C(=O)/C=C/c2cnc3c(c2)CCC(=O)N3COP(=O)(O)O)oc2ccccc12` [AFABICIN], the MIC90 [14] was under 0.015 µg/mL, the fraction unbound [15] was under 0.05 and the fraction unbound [16] was under 0.05. The fraction unbound [17] was under 0.05, the fraction unbound [18] was under 0.05 and the PAE [19] was 1.1 h. The PAE [20] was 0.1 h, the Cmax [21] was 154 ng/mL and the Cmax [22] was 196 ng/mL. The Cmax [23] was 304 ng/mL, the AUC(0-t) at 24 h [24] was 367 ng·h/mL and the AUC(0-t) at 24 h [25] was 196 ng·h/mL. For the same molecule, the AUC(0-t) at 24 h [26] was 1030 ng·h/mL, the half-life [27] was 5 h and the survival at 1 mg/kg [28] was 100%. The ED50 [29] was 0.15 mg/kg.
Molecule `O=c1cc(NCCCN[C@@H]2CCOc3c(Br)cc(Br)cc32)[nH]c2ccsc12` [CRS-3123] has an MIC [30] of over 32 µg/mL, a pKi [31] of 7.55 and a pKi [32] of 10.70. For the same molecule, the pKi [33] was 10.77, the pKi [34] was 10.10 and the pKi [35] was 6.75. The pKi [36] was under 4.70, the pKi [37] was 5.72 and the bioavailability [38] was 0.6%. It also gave a bioavailability [39] of under 1%, a bioavailability [40] of under 1% and an MIC [41] of 0.5 µg/mL (≈ 0.974 µM). For the same molecule, the MIC [42] was 0.015 µg/mL (≈ 0.0292 µM), the MIC [43] was under 0.004 µg/mL and the MIC [44] was over 32 µg/mL. For the same molecule, the MIC [45] was over 32 µg/mL, the MIC [46] was over 32 µg/mL and the MIC [47] was over 32 µg/mL. The MIC [48] was over 32 µg/mL and the MIC [49] was over 32 µg/mL.
For `CCc1c(Cl)c(O)c(Cl)c(O)c1C(=O)O[C@H]1[C@H](O)[C@H](OC)[C@H](OC/C2=C\C=C\C[C@H](O)/C(C)=C/[C@H](CC)[C@@H](O[C@@H]3OC(C)(C)[C@@H](OC(=O)C(C)C)[C@H](O)[C@@H]3O)/C(C)=C/C(C)=C/C[C@@H]([C@@H](C)O)OC2=O)O[C@@H]1C` [FIDAXOMICIN], the MIC [50] was 0.15 µg/mL (≈ 0.142 µM).

Source: ChEMBL document CHEMBL5370525, “Antibiotics with novel mode of action as new weapons to fight antimicrobial resistance” (Eur J Med Chem, 2023)
